Experimental data taken from patent US12649723B2, “Carbonohydrazonoyl dicyanide compounds comprising 2 or more aryl or heteroaryl connected via linker and use thereof” (KOREA INSTITUTE OF SCIENCE AND TECHNOLOGY, priority 2020, dated 2026).
pIC50: −log10 of the molar value.

Key:
tau protein = target: T1, tau protein (Homo sapiens, UniProt P10636); test: Tau-BiFC cell model: inhibition of tau protein aggregation; assay type: cell-based; conditions: for remaining activity at 10 µM / remaining activity at 3 µM: 48 h, Forskolin-only group = 100% tau protein-aggregated state; for remaining activity at 10 µM: compound 10 μM, BiFC fluorescence, read-out: Response (% @10 μM); for pIC50: Tau BiFC in cells, with Forskolin 30 μM, 48 hours; for remaining activity at 3 µM: compounds marked *: measured at 3 μM, read-out: Response
T1 construct: fused on or other part: Split fluorescent-protein halves for BiFC are fused to tau; In the published tau-BiFC line these are Venus VN173 and VC155
T1 sequence (P10636 2-441 isoform P10636-8 limits assumed): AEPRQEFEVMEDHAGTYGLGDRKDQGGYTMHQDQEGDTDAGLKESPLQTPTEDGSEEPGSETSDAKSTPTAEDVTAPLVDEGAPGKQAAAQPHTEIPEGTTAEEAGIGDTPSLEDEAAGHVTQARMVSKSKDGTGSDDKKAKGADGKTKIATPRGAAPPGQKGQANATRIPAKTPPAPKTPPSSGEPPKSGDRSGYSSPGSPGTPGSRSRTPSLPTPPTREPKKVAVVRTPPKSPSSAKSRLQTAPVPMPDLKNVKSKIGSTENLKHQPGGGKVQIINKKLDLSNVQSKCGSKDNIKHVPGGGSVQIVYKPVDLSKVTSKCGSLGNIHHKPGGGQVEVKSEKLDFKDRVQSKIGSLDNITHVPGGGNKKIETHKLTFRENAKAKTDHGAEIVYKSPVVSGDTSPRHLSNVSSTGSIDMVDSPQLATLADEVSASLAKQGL
Summary of the method: (§1)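 Aggregation was induced by 30 μM Forskolin co-applied with test compound for 48 h, with screening at 1, 3, 10 μM and dose-response at 0.03–30 μM. Nuclei were stained with Hoechst (2 μg/mL) and counted against Forskolin-only wells for cytotoxicity. Inhibition came from BiFC fluorescence relative to Forskolin-only versus untreated cells, with IC50 by nonlinear regression.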

Tau-BiFC cells = test: Cell viability (cytotoxicity) in tau-BiFC cells, count of stained nuclei; assay type: cell-based; conditions: Forskolin-only group = 100% cell viability; for Cell viability (% @10 μM): compound 10 μM; for Cell viability: compounds marked *: measured at 3 μM
Summary of the method: as §1

CYP1A2 = target: T2, CYP1A2 (Homo sapiens, UniProt P05177); test: Inhibitory effect on CYP coenzyme activity, human liver microsomes; assay type: in vitro ADME; conditions: compound 10 μM; human liver microsomes 0.25 mg/mL; substrate phenacetin; 15 minutes
T2 construct: human liver microsomes (0.25 mg/mL); from tissue; host or cells: human liver microsomes
T2 sequence (P05177 1-516): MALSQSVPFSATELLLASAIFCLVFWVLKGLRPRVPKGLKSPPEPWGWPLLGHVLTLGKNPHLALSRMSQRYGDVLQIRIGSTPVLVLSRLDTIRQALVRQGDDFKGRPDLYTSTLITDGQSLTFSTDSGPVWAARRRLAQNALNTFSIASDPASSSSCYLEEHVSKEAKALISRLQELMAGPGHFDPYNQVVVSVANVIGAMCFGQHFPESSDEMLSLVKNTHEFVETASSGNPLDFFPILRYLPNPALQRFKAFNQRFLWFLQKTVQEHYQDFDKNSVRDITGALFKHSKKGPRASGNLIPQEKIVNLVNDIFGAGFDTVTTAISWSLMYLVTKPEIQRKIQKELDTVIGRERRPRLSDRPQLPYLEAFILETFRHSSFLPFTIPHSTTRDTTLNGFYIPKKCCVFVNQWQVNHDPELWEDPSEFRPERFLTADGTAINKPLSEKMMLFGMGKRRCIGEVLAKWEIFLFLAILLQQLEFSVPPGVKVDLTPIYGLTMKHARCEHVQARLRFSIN
Description: (§2) The inhibitory effects of the compounds prepared according to Examples 1 to 175 on CYP coenzyme activity were identified. Specifically, human liver microsomes (0.25 mg/mL), a 0.1 M phosphate buffer solution (pH 7.4), a substrate drug cocktail of five types of drug metabolism enzymes (50 μM phenacetin, 10 μM diclofenac, 100 μM S-mephenytoin, 5 μM dextromethorphan, and 2.5 μM midazolam), and the compound at a concentration of 0 μM or 10 μM were mixed and pre-cultured at 37° C. for 5 minutes, and then further cultured at 37° C. for 15 minutes together with an NADPH generation system solution added thereto. Thereafter, the reaction was terminated by adding an acetonitrile solution containing an internal standard material (terfenadine) and centrifuged for 5 minutes (14,000 rpm, 4° C.), and then a supernatant was injected into an LC-MS/MS system for simultaneous analysis of metabolites of the substrate drugs to thereby evaluate the inhibitory effects on drug metabolism.
(§3) Metabolites of each CYP coenzyme indicator drug generated through the reaction were analyzed using the Shimadzu Nexera XR system and TSQ Vantage (Thermo). In an HPLC column, Kinetex C18 (2.1 mm×100 mm, 2.6 μm, particle size; Phenomenex, USA) was used, and mobile phases were (A) distilled water containing 0.1% formic acid and (B) acetonitrile containing 0.1% formic acid, and a gradient program shown in Table 3 was applied thereto.
(§4) The generated metabolites were quantified using a multiple reaction monitoring (MRM) quantification mode, and Xcalibur (version 1.6.1) was used for data analysis. Inhibitory effects of the novel compound prepared according to the examples of the present invention on CYP coenzyme activity are shown in Table 4 below.

CYP2C19 = target: T3, CYP2C19 (Homo sapiens, UniProt P33261); test: as above; assay type: in vitro ADME; conditions: compound 10 μM; human liver microsomes 0.25 mg/mL; substrate S-mephenytoin; 15 minutes
T3 construct: human liver microsomes (0.25 mg/mL); from tissue; host or cells: human liver microsomes
T3 sequence (P33261 whole entry): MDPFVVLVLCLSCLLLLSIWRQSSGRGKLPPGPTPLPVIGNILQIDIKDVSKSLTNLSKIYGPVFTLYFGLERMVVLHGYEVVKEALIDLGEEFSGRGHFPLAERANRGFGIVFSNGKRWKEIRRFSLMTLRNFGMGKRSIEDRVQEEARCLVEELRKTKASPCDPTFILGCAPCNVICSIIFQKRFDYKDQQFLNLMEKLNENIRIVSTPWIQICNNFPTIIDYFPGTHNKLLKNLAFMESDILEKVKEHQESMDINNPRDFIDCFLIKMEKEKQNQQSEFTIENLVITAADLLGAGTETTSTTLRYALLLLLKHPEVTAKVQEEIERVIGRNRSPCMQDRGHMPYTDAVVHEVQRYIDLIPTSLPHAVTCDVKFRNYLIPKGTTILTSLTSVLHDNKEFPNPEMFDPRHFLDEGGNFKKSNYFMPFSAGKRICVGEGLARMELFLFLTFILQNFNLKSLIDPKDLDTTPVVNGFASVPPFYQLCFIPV
Description: as §2, §3, §4

CYP2C9 = target: T4, CYP2C9 (Homo sapiens, UniProt P11712); test: as above; assay type: in vitro ADME; conditions: compound 10 μM; human liver microsomes 0.25 mg/mL; substrate diclofenac; 15 minutes
T4 construct: human liver microsomes (0.25 mg/mL); from tissue; host or cells: human liver microsomes
T4 sequence (P11712 whole entry): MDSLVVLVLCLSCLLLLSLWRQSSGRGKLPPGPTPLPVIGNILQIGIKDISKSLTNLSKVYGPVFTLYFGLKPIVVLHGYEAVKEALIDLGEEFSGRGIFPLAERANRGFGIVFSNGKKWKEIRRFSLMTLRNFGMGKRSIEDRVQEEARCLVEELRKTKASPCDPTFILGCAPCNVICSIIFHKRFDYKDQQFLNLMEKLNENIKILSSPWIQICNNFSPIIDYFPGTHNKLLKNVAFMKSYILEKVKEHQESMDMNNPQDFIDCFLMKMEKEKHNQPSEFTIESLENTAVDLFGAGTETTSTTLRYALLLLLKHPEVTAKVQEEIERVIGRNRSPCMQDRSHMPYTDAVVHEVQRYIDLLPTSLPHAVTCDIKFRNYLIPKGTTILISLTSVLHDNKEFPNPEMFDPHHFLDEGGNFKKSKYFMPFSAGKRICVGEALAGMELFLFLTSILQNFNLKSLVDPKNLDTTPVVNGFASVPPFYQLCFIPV
Description: as §2, §3, §4

CYP2D6 = target: T5, CYP2D6 (Homo sapiens, UniProt P10635); test: as above; assay type: in vitro ADME; conditions: compound 10 μM; human liver microsomes 0.25 mg/mL; substrate dextromethorphan; 15 minutes
T5 construct: human liver microsomes (0.25 mg/mL); from tissue; host or cells: human liver microsomes
T5 sequence (P10635 whole entry): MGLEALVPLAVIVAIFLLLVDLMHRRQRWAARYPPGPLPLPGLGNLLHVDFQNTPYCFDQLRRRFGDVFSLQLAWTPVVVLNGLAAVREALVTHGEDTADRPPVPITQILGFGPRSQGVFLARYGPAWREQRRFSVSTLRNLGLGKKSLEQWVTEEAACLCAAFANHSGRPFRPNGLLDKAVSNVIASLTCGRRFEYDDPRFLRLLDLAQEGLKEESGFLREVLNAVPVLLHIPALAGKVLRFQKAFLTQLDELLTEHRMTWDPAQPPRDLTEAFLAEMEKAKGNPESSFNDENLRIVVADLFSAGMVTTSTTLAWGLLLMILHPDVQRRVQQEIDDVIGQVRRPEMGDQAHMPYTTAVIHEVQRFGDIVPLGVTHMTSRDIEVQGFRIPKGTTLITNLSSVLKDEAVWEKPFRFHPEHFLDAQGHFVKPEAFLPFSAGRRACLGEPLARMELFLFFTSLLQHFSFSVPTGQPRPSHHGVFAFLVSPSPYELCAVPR
Description: as §2, §3, §4

CYP3A4 = target: T6, CYP3A4 (Homo sapiens, UniProt P08684); test: as above; assay type: in vitro ADME; conditions: compound 10 μM; human liver microsomes 0.25 mg/mL; substrate midazolam; 15 minutes
T6 construct: human liver microsomes (0.25 mg/mL); from tissue; host or cells: human liver microsomes
T6 sequence (P08684 whole entry): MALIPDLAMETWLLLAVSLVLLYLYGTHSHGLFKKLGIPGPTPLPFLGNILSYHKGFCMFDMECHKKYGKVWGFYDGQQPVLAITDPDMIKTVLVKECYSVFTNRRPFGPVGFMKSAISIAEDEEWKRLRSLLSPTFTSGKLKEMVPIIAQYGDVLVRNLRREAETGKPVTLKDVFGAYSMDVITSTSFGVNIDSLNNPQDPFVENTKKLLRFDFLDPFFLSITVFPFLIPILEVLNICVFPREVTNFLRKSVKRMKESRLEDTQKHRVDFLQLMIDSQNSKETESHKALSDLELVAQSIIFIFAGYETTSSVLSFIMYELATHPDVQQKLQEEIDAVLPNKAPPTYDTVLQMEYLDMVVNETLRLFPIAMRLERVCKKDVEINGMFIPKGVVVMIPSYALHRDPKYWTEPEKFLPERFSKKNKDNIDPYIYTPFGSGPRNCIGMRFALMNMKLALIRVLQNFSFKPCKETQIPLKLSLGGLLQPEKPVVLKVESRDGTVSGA
Description: as §2, §3, §4

[1] = Liver microsome stability; assay type: in vitro ADME, human; conditions: amount of substrate remaining; compound 1 μM, 30 minutes, 37° C., NADPH
Summary of the method: (§5)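 Human, dog, rat and mouse liver microsomes (0.25 mg/mL) with 1 μM compound in 0.1 M phosphate buffer pH 7.4, preincubated 5 min at 37° C, then incubated 30 min at 37° C with NADPH-generating system. Reaction stopped with acetonitrile containing internal standard; remaining parent quantified by LC-MS/MS.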

[2] = Liver microsome stability; assay type: in vitro ADME, dog; conditions: amount of substrate remaining; compound 1 μM, 30 minutes, 37° C., NADPH
Description: The stability of liver microsomes due to the compounds prepared according to Examples 1 to 175 was confirmed. Specifically, four types of liver microsomes (human, dog, rat, and mouse, each 0.25 mg/mL), a 0.1 M phosphate buffer solution (pH 7.4), and each of the compounds at a concentration of 1 μM were mixed and pre-cultured at 37° C. for 5 minutes and further cultured at 37° C. for 30 minutes together with an NADPH generation system solution added thereto. Thereafter, the reaction was terminated by adding an acetonitrile solution containing an internal standard material (chloropropamide) and centrifuged for 5 minutes (14,000 rpm, 4° C.), and then a supernatant was injected into an LC-MS/MS system for analysis of substrate drugs to thereby evaluate metabolic stability due to 8 types of compounds.
The amount of the substrate remaining after the reaction was analyzed using the Shimadzu Nexera XR system and TSQ Vantage (Thermo). In an HPLC column, Kinetex XB-C18 (2.1 mm×100 mm, particle size of 2.6 μm; Phenomenex, USA) was used, and mobile phases were (A) distilled water containing 0.1% formic acid and (B) acetonitrile containing 0.1% formic acid. Analyst software (version 1.6.3) and Xcalibur (version 1.6.1) were used for data analysis.

[3] = Liver microsome stability; assay type: in vitro ADME, rat; conditions: amount of substrate remaining; compound 1 μM, 30 minutes, 37° C., NADPH
Summary of the method: as §5

[4] = Liver microsome stability; assay type: in vitro ADME, mouse; conditions: amount of substrate remaining; compound 1 μM, 30 minutes, 37° C., NADPH
Summary of the method: as §5

Row | Compound | remaining activity at 10 µM (tau protein) [%] | pIC50 (tau protein) | Cell viability (% @10 μM) (Tau-BiFC cells) [%] | CYP1A2 (CYP1A2) | CYP2C19 (CYP2C19) | CYP2C9 (CYP2C9) | CYP2D6 (CYP2D6) | CYP3A4 (CYP3A4) | Human (%) [1] [%] | Dog (%) [2] [%] | Rat (%) [3] [%] | Mouse (%) [4] [%] | remaining activity at 3 µM (tau protein) [%] | Cell viability (Tau-BiFC cells) [%]
1 | Cc1cnc(C(=O)Nc2ccc(NN=C(C#N)C#N)cn2)cn1 [Compound 1, (6-(5-methylpyrazine-2-carboxamido)pyridin-3-yl)carbonohydrazonoyl dicyanide] | 0 | 6.40 | 94.3 | 80.7 | 74.6 | 71.1 | 93.1 | 85 | 86.5 | 66.9 | 56.7 | 21.2 |  | 
2 | N#CC(C#N)=NNc1ccc(NC(=O)c2cccc(C(F)(F)F)c2)nc1 [Compound 26, (6-(3-(trifluoromethyl)benzamido)pyridin-3-yl)carbonohydrazonoyl dicyanide] | 0 | 6.15 | 109.8 |  |  |  |  |  | 72.5 | 29.8 | 19.8 | 7.1 |  | 
3 | N#CC(C#N)=NNc1ccc(Oc2ccccc2)nc1 [Compound 68, (6-phenoxypyridin-3-yl)carbonohydrazonoyl dicyanide] | 0 | 6.96 | 117 |  |  |  |  |  | 6.7 | 87.8 | 63 | 93.6 |  | 
4 | N#CC(C#N)=NNc1ccc(Oc2cccc(F)c2)nc1 [Compound 69, (6-(3-fluorophenoxy)pyridin-3-yl)carbonohydrazonoyl dicyanide] | 0 | 6.59 | 119.4 |  |  |  |  |  | 8.4 | 94.8 | 75.6 | 81.6 |  | 
5 | N#CC(C#N)=NNc1ccc(NC(=O)c2ccoc2)nc1 [Compound 110, (6-(furan-3-carboxamido)pyridin-3-yl)carbonohydrazonoyl dicyanide] | 0 | 6.10 | 160.5 | 88.3 | 88.4 | 77.1 | 91.3 | 98.9 | 89.7 |  | 81.8 | 92.4 |  | 
6 | Cc1cc(NN=C(C#N)C#N)ccc1OCc1ncccn1 [Compound 143, (3-methyl-4-(pyrimidin-2-ylmethoxy)phenyl)carbonohydrazonoyl dicyanide] |  |  |  | 95.9 | >100 | >100 | >100 | 90.3 | 78.3 |  | 57.6 | 50 | 11 | 125
7 | Cc1cc(NN=C(C#N)C#N)ccc1OCc1cnccn1 [Compound 144, (3-methyl-4-(pyrazin-2-ylmethoxy)phenyl)carbonohydrazonoyl dicyanide] |  | 5.89 |  | 37.7 | >100 | 24.5 | >100 | 89.2 | 74.9 |  | 92.4 | 80.9 | -20 | 111
8 | Cc1cc(NN=C(C#N)C#N)ccc1OCc1cccnc1 [Compound 145, (3-methyl-4-(pyridin-3-ylmethoxy)phenyl)carbonohydrazonoyl dicyanide] |  | 6.90 |  | 5.3 | 46.5 | 2.2 | 39.1 | 22 | 93.7 |  | 91.2 | 93.3 | -49 | 95
9 | Cc1cc(NN=C(C#N)C#N)ccc1OCc1nc2ccccc2[nH]1 [Compound 146, (4-((1H-benzo[d]imidazol-2-yl)methoxy)-3-methylphenyl)carbonohydrazonoyl dicyanide] |  | 6.35 |  | >100 | 88.4 | 47.2 | >100 | 82.7 | 64.6 |  | 31.1 | 70.5 | -35 | 133
10 | Cc1cc(NN=C(C#N)C#N)ccc1OCc1cscn1 [Compound 152, (3-methyl-4-(thiazol-4-ylmethoxy)phenyl)carbonohydrazonoyl dicyanide] |  | 7.27 |  | 75.5 | 95 | 17.2 | 96.1 | >100 | 73.2 |  | 72.3 | 56.6 | -37 | 117
11 | Cc1cc(NN=C(C#N)C#N)ccc1OCc1nc2ccccc2o1 [Compound 156, (4-(benzo[d]oxazol-2-ylmethoxy)-3-methylphenyl)carbonohydrazonoyl dicyanide] |  | 7.30 |  | 95.9 | 83.7 | 54 | 96 | 92.6 | 49.3 |  | 55.5 | 41.3 | -29 | 124
